Here are results for four molecules from patent US20090148535A1, “METHOD FOR TREATING CANCER USING INTERFERENCE RNA” (MINERVA BIOTECHNOLOGIES CORPORATION, priority 2007, published 2009).

What all share (assay type): cell-based
Data set [1] concerns BTRes1 cells. As to the kind of experiment: Cell death of BTRes1 cells with chemotherapeutic agents with or without Anti-MUC1* Fab (Trypan Blue exclusion). The note with it: for resistance of BTRes1 and restored killing effect with Anti-MUC1* Fab: 10 ug/ml Anti-MUC1* Fab. The protocol:
(§1) BT474, BTRes1 and BTRes2 cells were plated at 10,000 cells/well in 96 well plates, 4 wells/condition. The following day, Cyclophosphamide, Taxol, or Doxorubicin were added in varying concentrations, alone, or in the presence of 10 ug/ml Anti-MUC1* Fab or 10 ug/ml Control Fab. Cells were left untreated, or treated with either Fab alone as controls. Two days later, cells were resuspended in 50 ul trypsin, and counted in the presence of trypan blue. Percent cell death was calculated as percent trypan blue uptake.

For data set [2], the system named is BT474 cells. As to the kind of experiment: Cell death of BT474 cells with chemotherapeutic agents (Trypan Blue exclusion). The note with it: 10 nM Taxol, two days post-treatment. On the procedure:
as §1

Data set [3] deals with BTRes1 cells. Briefly: Growth of siRNA-transfected BTRes1 cells in the presence of HERCEPTIN
The note with it: HERCEPTIN 0-1 ug/ml, cell counts three days post-treatment. The protocol:
Percent Normalized Growth was then calculated: Percent Normalized Growth=[(Day 3 cell counts with Antibody Added )−(Zero-day cell counts)]/[(Day 3 Cell counts without antibody added)−(Zero-day cell counts)]×100%
(§2) BT474 cells were transfected in triplicate with control siRNA (Santa Cruz Biotechnologies; sc-37007), and BTRes1 cells were transfected in triplicate with control or MUC1-specific siRNA (Santa Cruz Biotechnologies sc-35985). One microliter of 10 uM siRNA was added to 100 ul of OptiMEM medium (Invitrogen 22600134). Six microliters of HiPerfect reagent (Qiagen 301704) were then added to each tube. After vortexing, tubes were incubated at room temperature for 20 minutes. Meanwhile, cells were trypsinized, pelleted and resuspended in fresh RPMI without HERCEPTIN. 5×10^5 cells in 2.3 ml RPMI were combined with the OptiMEM with siRNA/HiPerfect complexes and added to a well of a 6 well plate. Two days later, cells were re-transfected by the same method, and plated in 96 well plates, at 10,000 cells/well, five wells/condition. Leftover cells were plated in six well plates. […] The following day, cells plated in 6 well plates were harvested and pelleted for Western analysis to evaluate siRNA efficacy. Three days later, cells were counted, and Percent Normalized Growth was calculated.

Data set [4] relates to MUC1*. As to the kind of experiment: Western blot of MUC1* after siRNA transfection. Conditions: Western Blot after transient siRNA transfection. On the procedure: as §2

Consider `O=P1(N(CCCl)CCCl)NCCCO1` (stereo not shown) [Cyclophospharnide, Cyclophosphamide], for which the “resistance of BTRes1 and restored killing effect with Anti-MUC1* Fab” value in data set [1] (10 uM drug) was “also observed”.
For `COc1cccc2c1C(=O)c1c(O)c3c(c(O)c1C2=O)C[C@@](O)(C(=O)CO)C[C@@H]3O[C@H]1C[C@H](N)[C@H](O)[C@H](C)O1` [Doxorubicin], the “resistance of BTRes1 and restored killing effect with Anti-MUC1* Fab” value in data set [1] (1 uM drug) is “also observed”.
For the molecule `CC(=O)O[C@H]1C(=O)[C@@]2(C)[C@H]([C@H](OC(=O)c3ccccc3)[C@]3(O)C[C@H](OC(=O)[C@H](O)[C@@H](NC(=O)c4ccccc4)c4ccccc4)C(C)=C1C3(C)C)[C@]1(OC(C)=O)CO[C@@H]1C[C@@H]2O` [Taxol], the cell killing result in data set [2] is listed as “effectively killed”; in data set [1] (BTRes1, 10 nM Taxol alone, two days, compared to untreated cells), “essentially unaffected”. Also, the “killing effect with Anti-MUC1* Fab” value in data set [1] (BTRes1, 10 nM Taxol and 10 ug/ml Anti-MUC1* Fab) is reported as “restored”.
Take “MUC1 siRNA: MUC1-specific siRNA (Santa Cruz Biotechnologies sc-35985) (GCAGCCTCTCGATATAACCATCTCGAGGGGTTATATCGAGAGGCTGC; expressed or natural sequence)”: the “growth in the presence of HERCEPTIN of cells transfected with the siRNA” value in data set [3] is recorded as “reduced”. Further, in data set [4], the “MUC1* level” value is “Down regulation”.
